Values of other authors, collected in patent publication US9034798B2, “Capture compounds, collections thereof and methods for analyzing the proteome and complex compositions” (CAPROTEC BIOANALYTICS GMBH, priority 2003, dated 2015).

Conditions: for drug-induced hepatotoxicity: clinical studies; for heart failure: six male patients with poor heart and kidney function; for deaths: reported before withdrawal from the market

Row | Structure (SMILES) | drug-induced hepatotoxicity | heart failure | deaths [deaths]
1 | CCc1ccc(CCOc2ccc(CC3SC(=O)NC3=O)cc2)nc1 (stereo not drawn) [Actos, Pioglitazone] | no evidence of drug-induced hepatotoxicity | caused heart failure | 
2 | CN(CCOc1ccc(CC2SC(=O)NC2=O)cc1)c1ccccn1 (stereo not drawn) [Avandia, Rosiglitazone] | no evidence of drug-induced hepatotoxicity | caused heart failure | 
3 | COCc1c(C(C)C)nc(C(C)C)c(/C=C/[C@@H](O)C[C@@H](O)CC(=O)O)c1-c1ccc(F)cc1 [Baycol, cerivastatin sodium] |  |  | 31
4 | Cc1c(C)c2c(c(C)c1O)CCC(C)(COc1ccc(CC3SC(=O)NC3=O)cc1)O2 (stereo not drawn) [Rezulin, Troglitazone] |  |  | 398
